Assay results reported in patent publication EP2999467B1, “USE OF A COMBINATION OF TWO COMPOUNDS FOR THE TREATMENT AND/OR PREVENTION OF BONE DISORDERS” (Institut National de la Recherche Agronomique (INRA), priority 2013, dated 2014).

Test system: RAW264.7
Test: TRAP staining: RANKL-induced osteoclast differentiation, count of multinucleated TRAP+ cells
Assay type: cell-based
Text: Les préostéoblastes primaires ont été isolés à partir de la calotte crânienne de rats Wistar nouveaux-nés par digestion enzymatique comme précédemment décrit [Declercq, H., Van den Vreken, N., De Maeyer, E., Verbeeck, R., Schacht, E., De Ridder, L., and Cornelissen, M. (2004). Isolation, proliferation and differentiation of osteoblastic cells to study cell/biomaterial interactions: comparison of different isolation techniques and source. Biomaterials 25, 757-68.]. Les précurseurs d'ostéoclastes RAW264.7 ont été obtenus auprès de l'ATCC (Manassas, VA, USA). Les préostéoblastes et les RAW264.7 ont été cultivés dans du milieu α-MEM (Invitrogen, Carlsbad, CA, USA) supplémenté avec 10% de SVF décomplémenté et de 100 unités/ml de pénicilline-streptomycine.
Pour la coloration TRAP, 60.000 cellules RAW264.7 ont été ensemencées dans des puits de plaques 12 puits pendant 12 heures puis traitées avec du DMSO/éthanol comme témoin ou de la fisétine (5 µM dans le DMSO) ou du DHA (50µM dans l'éthanol) ou la combinaison des deux (Fisétine 5 µM et DHA 50 µM) pendant 3 heures. Les cellules ont ensuite été induites à se différencier en présence de RANKL (50 ng/ml) avec du DMSO/éthanol ou de la fisétine (5 µM) ou du DHA (50 µM) ou la combinaison des deux (Fisétine 5 µM et DHA 50 µM) durant 4 jours avec un changement de milieux après 2 jours. De la BSA délipidée et sans endotoxines a été utilisée pour solubiliser le DHA avec un rapport 1/5 (BSA/DHA).
La coloration TRAP a été réalisée en utilisant le kit « leukocyte acid phosphatase » (Sigma-Aldrich) selon les recommandations du fournisseur après fixation des cellules. Les cellules TRAP+ multinucléées ont ensuite été comptées.

In the case of `CC/C=C\C/C=C\C/C=C\C/C=C\C/C=C\C/C=C\CCC(=O)O` [DHA, acide docosahexaénoïque], the inhibition at 50 µM (Mus musculus, RAW264.7, 96 h, DHA 50µM, RANKL 50 ng/ml, 4 days, vs RANKL condition, read-out: inhibition de l'induction par RANKL de la formation de cellules multinucléées TRAP+ (ostéoclastes)) is reported as 23% and the “ostéoclastes/cm^2” value (condition RANKL+DHA (50µM), RANKL alone 735+/-251) is reported as 564+/-259 ostéoclastes/cm^2.
